Source: paper PMC12037037 (Proceedings of the National Academy of Sciences of the …, 2025)

Tests used:
C57BL/6J mice = assay: Amphetamine-induced locomotion; format: in vivo; conditions: (+)-JRT 1 mg/kg + AMPH 3 mg/kg
Experimental: Figure S11. […] (A) Pretreatment with (+)-JRT (1 mg/kg,
IP) can block AMPH-induced hyperlocomotion in female, but not male, mice. (B) Pretreatment with (+)-JRT (1 mg/kg, IP) […]
AMPH = (+)-amphetamine; PCP = phencyclidine; VEH = vehicle; ns = not significant. *p < 0.05, **p < 0.01, ***p < 0.001, ****p < 0.0001, as compared to the comparator(s) indicated by a horizontal bar. See Methods and SI Appendix, Table S1 for full details on statistics.
(1 picture or pasted object on this page, not shown here)
Amphetamine-Induced Locomotion. The amphetamine-induced hyperlocomotion assay was performed using male and female C57BL/6J mice that were approximately 8 weeks old at the time of the experiments. Animals were first placed in the test arena (40 cm x 40 cm) for 15 min to obtain a basal reading of locomotion and habituate them to the testing arena.
Next, animals were administered (+)-JRT (1 mg/kg) or VEH (2.5 mL/kg, i.p) and placed back in the test arena. After 15 min, the animals were administered (+)-amphetamine (3 mg/kg) or VEH (2.5 mL/kg) and placed back in the test arena for 60 minutes. Locomotion during the entire experiment was quantified using ANYmaze Video Tracking System, version 7.07 (Stoelting Co.). The test arena was cleaned thoroughly with 70% ethanol between trials. […]
Reads were aligned to the GRCm39 genome assembly using STAR, processed with Picard, and counted with the Subread software. Transcript inclusion criteria consisted of a minimum raw expression level of 25 transcripts in a minimum of 4 samples. Surrogate variable analysis was conducted with the sva package 2023 release v3.5.0 in R and normalization and differential expression analysis was performed with DESeq2 v4.3 with a baseMean threshold of 10. Heatmaps were created with the pheatmap v1.0.12 with sample-wise z-scores plotted and both row and column grouping allowed using pearson's distances and ward.D for clustering. Gene-wise selection criteria for heatmaps were a baseMean expression threshold of 50 to focus on robustly expressed genes, p value < 0.05, and presence in the top 250 genes sorted by absolute value of log2FC. Additionally, z score was capped at 2 for visualization purposes. Schizophrenia gene sets were extracted from a recent TWAS study (30).
For Figure S8G, the TWAS set was filtered for FDR < 0.01. Permutation testing was conducted to quantify the overlap of top genes from schizophrenia TWAS with the perm_test function from the bulkWarehouse package 2023 release v1.2.7.
Briefly, the intersection of top differentially expressed genes and top TWAS genes is compared to an empirical distribution created by calculating the intersection with our top DEGs when randomly sampling candidate genes from our dataset equal to the size of the TWAS sample. […]

male Long Evans rats = assay: Probabilistic reward task (PRT) under chronic cold-water stress; format: in vivo; conditions: for Response bias (log b) (Figure 6G): JRT 1 mg/kg

Compound: CCN(CC)C(=O)[C@@H]1C=C2c3cccc4ccn(c34)C[C@H]2N(C)C1 [(+)-JRT]
- Locomotion (Figure 11A Females) (C57BL/6J mice; female mice, VEH + VEH 101.9 ± 15.04): 217.2 ± 47.70
- Locomotion (Figure 11A Males) (C57BL/6J mice; male mice, VEH + VEH 59.80 ± 4.206): 361.2 ± 35.54
- Persistence of the effect on response bias following a single dose (male Long Evans rats; 1 mg/kg, continued daily cold-water stress): at least 3 d
- Response bias (log b) (Figure 6G) (male Long Evans rats; Day 2, Day 1 0.131 ± 0.082): 0.406 ± 0.069
- Response bias (log b) (Figure 6G) (male Long Evans rats; Day 3, Day 1 0.131 ± 0.082): 0.474 ± 0.112
- Response bias (log b) (Figure 6G) (male Long Evans rats; Day 11, Day 1 0.131 ± 0.082): 0.290 ± 0.061
- Response bias (log b) (Figure 6G) (male Long Evans rats; Day 1 (stressed, before drug) 0.131 ± 0.082): 0.491 ± 0.071
